Assay results from patent US9840528B2, “Thione-platinum(II) complexes and pharmaceutical compositions thereof” (priority 2015, dated 2017).
Entries after “also recorded” stand apart in the source; their conditions may differ.

Tests used:
[1] = test system: A549 (human lung carcinoma) cell line; assay: MTT assay, in vitro cytotoxicity against A549; format: cell-based; details: A549 cells; for IC50: MTT, 24 h exposure, read-out: IC50 ± SEM A549; for in vitro cytotoxicity in comparison, A549: compared with cisplatin, carboplatin or each other
Method: (§1) Monim-ul-Mehboob, A. A. Isab, V. Dhuna, G. Bhatia, K. Dhuna and S. Altuwaijri, New J. Chem., 39 (2015) 377-incorporated herein by reference in its entirety]. The cells were seeded at 3×10^3 cells/well in 100 μL DMEM containing 10% Fetal Bovine Serum (FBS) in 96-well tissue culture plate and incubated for 72 h at 37° C., 5% CO2, in air and 90% relative humidity in CO2 incubator. […] The medium of wells was discarded and 100 μL DMEM containing MTT (0.5 mg/ml) was added to the wells and incubated in CO2 incubator at 37° C. in dark for 4 h. After incubation, a purple colored formazan produced in the cells appeared as dark crystals in the bottom of the wells. The culture medium was discarded from each well carefully to prevent disruption of monolayer and 100 μL of dimethyl sulfoxide (DMSO) was added in each well. The solution in the wells was thoroughly mixed to dissolve the formazan crystals which produce a purple solution. The absorbance of the 96 well-plates was taken at 570 nm with Labsystems Multiskan EX ELISA reader against a reagent blank. […] The MTT assay was performed in three independent experiments, each in triplicate. […] A549 (human lung carcinoma), MCF7 (human breast cancer), HCT15 (human colon adenocarcinoma), and HeLa (human cervical cancer) cell lines. […] This cytotoxic effect was obtained by the stipulated increase in the concentrations of the complexes and cisplatin against fixed number of human cancer cells. The IC50 concentration of the complexes and Cisplatin for different human cell lines was obtained from curves between the complexes concentration and percentage viability of the cells.

[2] = test system: MCF7 (human breast cancer) cell line; assay: MTT assay, in vitro cytotoxicity against MCF7; format: cell-based; details: MCF7 cells; for IC50: MTT, 24 h exposure, read-out: IC50 ± SEM MCF7; for in vitro cytotoxicity in comparison, MCF7: compared with cisplatin or each other
Method: as §1

[3] = test system: HCT15 (human colon adenocarcinoma) cell line; assay: MTT assay, in vitro cytotoxicity against HCT15; format: cell-based; details: HCT15 cells; for IC50: MTT, 24 h exposure, read-out: IC50 ± SEM HCT15
Method: as §1

[4] = test system: HeLa (human cervical cancer) cell line; assay: MTT assay, in vitro cytotoxicity against HeLa; format: cell-based; details: 24 h exposure, HeLa cells, read-out: IC50 ± SEM HeLa
Method: as §1

[5] = Stability in DMSO-d6 by time dependent 1H NMR; format: physicochemical; details: spectra after 1, 6, 12, 24, 48 and 72 h
Method: Complexes (1), (5) and (6) were dissolved in DMSO-d6 and their ^1H NMR spectra were measured. The extent of decomposition over time was determined by comparing the NMR spectra collected after 1, 6, 12, 24, 48 and 72 h.

[6] = Solubility in organic solvents; format: physicochemical

| Compound | IC50 [1] [µM] | IC50 [2] [µM] | IC50 [3] [µM] | IC50 [4] [µM] | in vitro cytotoxicity in comparison, A549 [1] | in vitro cytotoxicity in comparison, MCF7 [2] | IC80 [2] [µM] | in vitro cytotoxic efficacy in comparison, HCT15 ([3]; compared with cisplatin and carboplatin) | change in chemical shifts and splitting patterns in time dependent 1H NMR spectra (extent of decomposition) [5] | solubility in CDCl3 ([6]; CDCl3) | solubility in DMSO and DMF ([6]; DMSO and DMF) |
| --- | --- | --- | --- | --- | --- | --- | --- | --- | --- | --- | --- |
| N.N.O=C([O-])C1(C(=O)[O-])CCC1.[Pt+2] [Carboplatin, carboplatin, reference compound] | 70.2 ± 1.7 | 53.2 ± 1.65 | 63.3 ± 1.58 | 55 ± 0.94 | – | – | – | – | – | – | – |
| CC(C)N1CCNC1=S.CC(C)N1CCNC1=S.CC(C)N1CCNC1=S.CC(C)N1CCNC1=S.O=[N+]([O-])[O-].O=[N+]([O-])[O-].[Pt+2] [Complex (7), Tetrakis(1-isopropylimidazolidine-2-thione)platinum(II)] | 84.2 ± 1.09 | 74.4 ± 1.28 | 116 ± 2.09 | 99.9 ± 2.25 | almost equal cytotoxicity | very similar cytotoxic data and efficacy | – | – | – | – | – |
| CCCN1CCNC1=S.CCCN1CCNC1=S.CCCN1CCNC1=S.CCCN1CCNC1=S.[Cl-].[Cl-].[Pt+2] [Complex (3), Tetrakis(1-propylimidazolidine-2-thione)platinum(II)] | 59.2 ± 2.6 | 62.9 ± 1.51 | 95.6 ± 2.14 | 133 ± 1.97 | in between cisplatin and carboplatin | – | – | – | – | – | – |
| S=C1NCCCCN1.S=C1NCCCCN1.S=C1NCCCCN1.S=C1NCCCCN1.[Cl-].[Cl-].[Pt+2] [Complex (6), Tetrakis(1,3-diazepane-2-thione)platinum(II)] | 119 ± 2.25 | 121 ± 3.36 | 108 ± 2.03 | 92.5 ± 2.45 | – | – | – | – | – | – | – |
| CC(C)N1CCNC1=S.CC(C)N1CCNC1=S.CC(C)N1CCNC1=S.CC(C)N1CCNC1=S.[Cl-].[Cl-].[Pt+2] [Complex (4), Tetrakis(1-isopropylimidazolidine-2-thione)platinum(II)] | 85.7 ± 1.35 | 78.1 ± 1.45 | 122 ± 1.75 | 95.44 ± 0.88 | almost equal cytotoxicity | very similar cytotoxic data and efficacy | – | – | – | – | – |
| N.N.[Cl][Pt][Cl] [Cisplatin, cisplatin, reference compound] | 36.9 ± 1.88 | 21.3 ± 1.54 | 26.6 ± 1.07 | 18.1 ± 1.36 | – | – | 21.3 | – | – | – | – |
| CCN1CCNC1=S.CCN1CCNC1=S.CCN1CCNC1=S.CCN1CCNC1=S.[Cl-].[Cl-].[Pt+2] [Complex (2), Tetrakis(1-ethylimidazolidine-2-thione)platinum(II)] | 37.1 ± 1.23 | 11.4 ± 1.34 | 41.6 ± 1.53 | 79.2 ± 1.95 | comparable to that of cisplatin; also recorded: almost two times better than that of carboplatin | two-fold better cytotoxic agent against the MCF7 cell line than cisplatin; also recorded: two-fold better as a cytotoxic agent than cisplatin | 11.4 | lies in between cisplatin's and carboplatin's | No significant change | – | – |
| CN1CCNC1=S.CN1CCNC1=S.CN1CCNC1=S.CN1CCNC1=S.O.O.[Cl-].[Cl-].[Pt+2] [Complex (1), Tetrakis(1-methylimidazolidine-2-thione)platinum(II)] | 55.5 ± 1.08 | 74.6 ± 1.54 | 147 ± 1.77 | 142 ± 2.42 | in between cisplatin and carboplatin | very similar cytotoxic data and efficacy | – | – | No significant change | moderately soluble | completely soluble |
| CCN1CCCNC1=S.CCN1CCCNC1=S.CCN1CCCNC1=S.CCN1CCCNC1=S.[Pt+2] [Complex (5), Tetrakis[1-ethyltetrahydropyrimidine-2(1H)-thione]platinum(II)] | 137 ± 1.77 | 95 ± 2.02 | 159 ± 2.9 | 166 ± 2.01 | – | – | – | – | – | – | – |
